What was measured:
MTOR_h = molecular target: T1, MTOR_h (Homo sapiens, UniProt P42345); assay: Enzyme binding assay (KINOMEscan); settings: DiscoveRx
T1 construct: purchased DiscoveRx Corporation
Description: (§1) Enzyme Binding Assays (KINOMEscan®)
(§2) Kinase enzyme binding affinities of compounds disclosed herein were determined using the KINOMEscan technology performed by DiscoveRx Corporation, San Diego, Calif., USA (www.kinomescan.com). Table A reports the obtained Kd values (nM), with the Kd being the inhibitor binding constant: […]

PIK3Cβ_h = molecular target: T2, PIK3Cβ_h (Homo sapiens, UniProt P42338); assay: Enzyme binding assay (KINOMEscan); settings: DiscoveRx
T2 construct: purchased DiscoveRx Corporation
Description: as §1, §2

PIK3Cγ_h = molecular target: T3, PIK3Cγ_h (Homo sapiens, UniProt P48736); assay: Enzyme binding assay (KINOMEscan); settings: DiscoveRx
T3 construct: purchased DiscoveRx Corporation
Description: as §1, §2

PIK3Cδ_h = molecular target: T4, PIK3Cδ_h (Homo sapiens, UniProt O00329); assay: Enzyme binding assay (KINOMEscan); settings: DiscoveRx
T4 construct: purchased DiscoveRx Corporation
T4 sequence (O00329 1-1044): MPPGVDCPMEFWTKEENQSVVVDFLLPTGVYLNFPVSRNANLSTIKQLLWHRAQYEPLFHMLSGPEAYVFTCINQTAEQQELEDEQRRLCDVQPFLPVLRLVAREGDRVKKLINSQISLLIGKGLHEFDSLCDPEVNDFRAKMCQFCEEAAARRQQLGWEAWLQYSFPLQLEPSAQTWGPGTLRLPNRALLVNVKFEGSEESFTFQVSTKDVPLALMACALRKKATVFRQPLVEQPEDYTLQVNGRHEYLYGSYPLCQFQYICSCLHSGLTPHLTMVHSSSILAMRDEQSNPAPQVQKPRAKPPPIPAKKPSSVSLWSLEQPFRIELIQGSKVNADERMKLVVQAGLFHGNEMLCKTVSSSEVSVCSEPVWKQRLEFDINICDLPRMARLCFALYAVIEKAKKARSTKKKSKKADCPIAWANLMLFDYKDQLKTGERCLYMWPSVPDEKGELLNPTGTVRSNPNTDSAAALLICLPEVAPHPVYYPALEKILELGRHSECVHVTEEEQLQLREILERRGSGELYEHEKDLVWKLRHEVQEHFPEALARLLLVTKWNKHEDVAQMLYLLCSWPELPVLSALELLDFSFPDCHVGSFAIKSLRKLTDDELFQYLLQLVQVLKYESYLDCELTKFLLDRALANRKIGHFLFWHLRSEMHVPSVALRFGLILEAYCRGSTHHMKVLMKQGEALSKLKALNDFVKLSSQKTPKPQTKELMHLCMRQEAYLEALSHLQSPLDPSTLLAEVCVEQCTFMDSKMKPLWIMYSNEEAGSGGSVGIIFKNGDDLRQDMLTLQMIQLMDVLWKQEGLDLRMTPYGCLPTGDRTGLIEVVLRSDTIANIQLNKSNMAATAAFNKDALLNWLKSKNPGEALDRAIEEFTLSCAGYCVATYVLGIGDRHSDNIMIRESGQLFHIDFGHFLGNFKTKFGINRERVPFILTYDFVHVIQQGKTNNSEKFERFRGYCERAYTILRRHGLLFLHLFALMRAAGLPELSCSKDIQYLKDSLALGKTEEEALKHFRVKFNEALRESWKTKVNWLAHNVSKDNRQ
Description: as §1, §2

PIK3Cα_h = molecular target: T5, PIK3Cα_h (Homo sapiens, UniProt P42336); assay: Enzyme binding assay (KINOMEscan); settings: DiscoveRx
T5 construct: purchased DiscoveRx Corporation
Description: as §1, §2

[1] = test system: Akt phosphorylated at Ser473 in PC-3 cells; assay: Cellular assay: phosphorylation of Akt (Ser473) in PC-3 cells, MSD ELISA; assay type: cell-based; settings: Homo sapiens, PC-3, 1 h, 60 min compound incubation, read-out: IC50 pAkt_S473
Description: (§3) Cellular activity of PI3Kβ inhibitors was determined by quantifying the phosphorylation of Akt in PC-3 cells. Akt phosphorylated at Ser473 and Thr308 were measured using an enzyme-linked immunosorbent assay (ELISA; Meso Scale Discovery (MSD), Gaithersburg, Md.) and specific primary antibodies from MSD.
(§4) On day 1, PC3 cells (ATCC #[…]) were seeded into PerkinElmer MW96 plates at 25.000 cells per well, in 75 μl complete culture medium (DMEM high glucose, AQmedia™, D0819, Sigma-Aldrich) containing 10% heat inactivated FCS and incubated at 37° C., […] during 24 hours. On day 2, compound or DMSO (0.3%) was added and cells were further incubated for 60 min at 37° C., 5% CO2 in a total volume of 100 μl of medium.
(§5) The phosphoprotein assay was executed according to vendor instructions in the Phospho-Akt (Ser473) Assay Whole Cell Lysate Kit (MSD #K15100D-3) and the Phospho-Akt (Thr308) Assay Whole Cell Lysate Kit (MSD #K151DYD-3) using the lysis, blocking and wash buffer provided.
(§6) Briefly, at the end of the cell treatment period, media were removed by aspiration and adherent cells were lysed in 50 μl ice-cold lysis buffer. MSD plates are supplied pre-coated with capture antibodies for Phospho-Akt (Ser473 and Thr308). After blocking, lysates from tissue culture plates were added and plates were washed. Then, a solution containing the detection antibody (anti-total Akt conjugated with an electrochemiluminescent compound-MSD Sulfo-tag label) was added. The signals were detected using an MSD SECTOR Imager 6000 and are proportional to the phospho-Akt titres.
(§7) Data were processed. The percentage of inhibition was plotted against the log concentration of test compounds, and the sigmoidal log concentration-effect curve of best fit was calculated by nonlinear regression analysis. From these concentration-response curves, the IC50 values were calculated. Five concentrations were used for curve fitting.

[2] = test system: Akt phosphorylated at Thr308 in PC-3 cells; assay: Cellular assay: phosphorylation of Akt (Thr308) in PC-3 cells, MSD ELISA; assay type: cell-based; settings: Homo sapiens, PC-3, 1 h, 60 min compound incubation, read-out: IC50 pAkt_Thr308
Description: as §3, §4, §5, §6, §7

T5 sequence (P42336 whole entry): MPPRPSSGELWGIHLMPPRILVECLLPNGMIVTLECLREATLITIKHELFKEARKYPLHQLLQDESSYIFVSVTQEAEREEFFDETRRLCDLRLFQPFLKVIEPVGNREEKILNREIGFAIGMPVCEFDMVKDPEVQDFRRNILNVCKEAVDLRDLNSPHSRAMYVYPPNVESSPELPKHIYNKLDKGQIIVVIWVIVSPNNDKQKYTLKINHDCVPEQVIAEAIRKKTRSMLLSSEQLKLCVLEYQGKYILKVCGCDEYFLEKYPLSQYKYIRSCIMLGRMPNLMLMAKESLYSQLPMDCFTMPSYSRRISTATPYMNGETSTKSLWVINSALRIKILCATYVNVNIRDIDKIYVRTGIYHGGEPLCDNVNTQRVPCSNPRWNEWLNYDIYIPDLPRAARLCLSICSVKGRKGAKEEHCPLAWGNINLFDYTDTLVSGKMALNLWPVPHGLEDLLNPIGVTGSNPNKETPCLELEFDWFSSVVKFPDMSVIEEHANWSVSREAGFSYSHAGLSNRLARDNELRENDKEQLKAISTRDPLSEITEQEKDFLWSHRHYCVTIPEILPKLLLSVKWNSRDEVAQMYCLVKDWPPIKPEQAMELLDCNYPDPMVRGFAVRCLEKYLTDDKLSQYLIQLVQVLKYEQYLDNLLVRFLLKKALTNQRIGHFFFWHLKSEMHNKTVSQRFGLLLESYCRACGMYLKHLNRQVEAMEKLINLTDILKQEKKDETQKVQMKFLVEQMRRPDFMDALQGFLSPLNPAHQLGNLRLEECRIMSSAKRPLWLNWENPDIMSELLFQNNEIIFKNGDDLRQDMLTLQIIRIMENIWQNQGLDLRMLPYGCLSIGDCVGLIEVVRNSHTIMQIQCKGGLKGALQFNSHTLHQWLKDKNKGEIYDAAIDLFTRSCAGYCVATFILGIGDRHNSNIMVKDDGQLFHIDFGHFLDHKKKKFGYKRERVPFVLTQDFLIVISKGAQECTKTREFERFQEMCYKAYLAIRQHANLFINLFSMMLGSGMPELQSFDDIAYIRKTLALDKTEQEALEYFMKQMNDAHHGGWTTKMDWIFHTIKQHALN
T3 sequence (P48736 whole entry): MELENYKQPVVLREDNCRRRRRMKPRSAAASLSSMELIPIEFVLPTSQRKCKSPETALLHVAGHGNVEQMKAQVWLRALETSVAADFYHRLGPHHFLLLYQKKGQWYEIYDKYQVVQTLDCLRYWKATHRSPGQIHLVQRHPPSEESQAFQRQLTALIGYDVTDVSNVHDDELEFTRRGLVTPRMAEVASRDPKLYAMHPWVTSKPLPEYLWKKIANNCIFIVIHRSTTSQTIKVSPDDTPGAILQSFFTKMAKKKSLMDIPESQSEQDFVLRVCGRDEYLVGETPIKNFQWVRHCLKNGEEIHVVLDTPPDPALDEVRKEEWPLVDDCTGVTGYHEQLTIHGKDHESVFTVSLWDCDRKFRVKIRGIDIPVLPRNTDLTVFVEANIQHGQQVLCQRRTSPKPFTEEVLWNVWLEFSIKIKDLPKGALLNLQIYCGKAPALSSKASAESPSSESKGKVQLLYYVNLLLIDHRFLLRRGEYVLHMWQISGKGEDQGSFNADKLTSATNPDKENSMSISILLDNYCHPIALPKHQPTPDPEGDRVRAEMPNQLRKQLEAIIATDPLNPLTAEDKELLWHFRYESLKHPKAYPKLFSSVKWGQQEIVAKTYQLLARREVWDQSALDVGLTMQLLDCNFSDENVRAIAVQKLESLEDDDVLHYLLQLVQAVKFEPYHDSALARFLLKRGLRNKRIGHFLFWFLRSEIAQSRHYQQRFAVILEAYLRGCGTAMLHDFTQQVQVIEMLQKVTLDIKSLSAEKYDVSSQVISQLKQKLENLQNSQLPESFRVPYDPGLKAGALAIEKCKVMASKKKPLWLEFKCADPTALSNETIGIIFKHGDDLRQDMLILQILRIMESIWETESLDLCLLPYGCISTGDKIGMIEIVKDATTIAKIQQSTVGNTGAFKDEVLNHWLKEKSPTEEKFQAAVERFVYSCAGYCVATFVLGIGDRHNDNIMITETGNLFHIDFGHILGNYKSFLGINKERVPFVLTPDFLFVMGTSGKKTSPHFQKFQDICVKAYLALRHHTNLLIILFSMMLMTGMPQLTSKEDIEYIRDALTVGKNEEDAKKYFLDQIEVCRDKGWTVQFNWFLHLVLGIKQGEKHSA
T2 sequence (P42338 whole entry): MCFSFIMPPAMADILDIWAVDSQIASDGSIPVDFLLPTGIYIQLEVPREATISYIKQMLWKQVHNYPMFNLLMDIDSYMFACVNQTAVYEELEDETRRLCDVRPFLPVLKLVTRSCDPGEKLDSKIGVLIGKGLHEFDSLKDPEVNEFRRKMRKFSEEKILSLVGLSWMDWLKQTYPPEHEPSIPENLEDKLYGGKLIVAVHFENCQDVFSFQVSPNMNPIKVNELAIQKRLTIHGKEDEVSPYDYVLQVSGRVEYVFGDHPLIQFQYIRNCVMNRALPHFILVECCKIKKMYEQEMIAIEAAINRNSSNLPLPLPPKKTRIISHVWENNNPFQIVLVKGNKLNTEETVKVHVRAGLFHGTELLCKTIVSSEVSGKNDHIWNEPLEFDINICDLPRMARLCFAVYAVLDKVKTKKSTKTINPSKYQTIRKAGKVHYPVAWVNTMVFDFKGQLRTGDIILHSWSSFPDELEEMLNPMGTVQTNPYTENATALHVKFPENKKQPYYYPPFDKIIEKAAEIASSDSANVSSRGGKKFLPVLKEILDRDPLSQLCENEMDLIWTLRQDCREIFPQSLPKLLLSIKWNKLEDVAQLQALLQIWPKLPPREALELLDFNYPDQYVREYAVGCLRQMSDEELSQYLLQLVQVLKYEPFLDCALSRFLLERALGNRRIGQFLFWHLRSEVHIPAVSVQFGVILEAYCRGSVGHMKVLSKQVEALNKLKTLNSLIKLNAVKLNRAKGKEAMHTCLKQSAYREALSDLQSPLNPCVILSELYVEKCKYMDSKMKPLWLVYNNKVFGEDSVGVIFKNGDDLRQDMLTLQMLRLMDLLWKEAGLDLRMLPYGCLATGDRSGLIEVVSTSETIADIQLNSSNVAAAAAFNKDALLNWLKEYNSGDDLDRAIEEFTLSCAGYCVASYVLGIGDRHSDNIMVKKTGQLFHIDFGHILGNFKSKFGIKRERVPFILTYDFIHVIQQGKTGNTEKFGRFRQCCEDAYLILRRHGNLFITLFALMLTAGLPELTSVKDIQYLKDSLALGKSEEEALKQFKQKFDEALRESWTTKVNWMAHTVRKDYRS

SMILES | melting point | Kd (MTOR_h) | Kd (PIK3Cβ_h) | Kd (PIK3Cγ_h) | Kd (PIK3Cδ_h) | Kd (PIK3Cα_h) | IC50 [1] | IC50 [2]
Cc1c(Cc2c(CN3CCS(=O)(=O)CC3)nc3ncc(N4CCOCC4)cn23)cccc1C(F)(F)F [Compound 22] | 225 °C | > 30.2 µM | 0.0031 µM | > 30.2 µM | 0.631 µM | 1.44 µM | 0.214 µM | ~0.079 µM
Cc1c(Cc2c(C(=O)N3C[C@@H](C)N[C@@H](C)C3)nc3ncc(N4CCOCC4)cn23)cccc1C(F)(F)F [Compound 23] | 130 °C | > 30.2 µM | 0.0087 µM | > 30.2 µM | 1.48 µM | > 30.2 µM | 0.389 µM | ~0.219 µM
Cc1c(Cc2c(CO)nc3c(N)cc(C4=CCOCC4)cn23)cccc1C(F)(F)F [Compound 46] | 223 °C | 5.89 µM | 0.016 µM | 6.46 µM | 1.06 µM | 8.43 µM | 0.032 µM | 0.018 µM

The next lines start with the values.

melting point | Kd (MTOR_h) | Kd (PIK3Cβ_h) | Kd (PIK3Cγ_h) | Kd (PIK3Cδ_h) | Kd (PIK3Cα_h) | IC50 [1] | IC50 [2] | SMILES
222 °C | > 30.2 µM | 0.049 µM | 12.9 µM | 4.79 µM | 9.55 µM | > 0.513 µM | > 0.513 µM | CN1CCC(c2c(F)cccc2Cc2c(CO)nc3ncc(N4CCOCC4)cn23)CC1 [Compound 48]
224 °C | > 30.2 µM | 0.015 µM | 15.8 µM | 2.24 µM | 2.57 µM | > 0.513 µM | > 0.513 µM | OCc1nc2ncc(N3CCOCC3)cn2c1Cc1cccc(F)c1C1CCNCC1 [Compound 49]

Reference: US10894793B2, “Bicyclic pyridine, pyrazine, and pyrimidine derivatives as PI3K beta inhibitors” (Janssen Pharmaceutica NV, priority 2016, dated 2021)
